Results taken from ChEMBL document CHEMBL5724914, “Linking interpersonal differences in gut microbiota composition and drug biotransformation activity” (2024).

What was measured:
[1] = (§1) The drug is tested on Z-030 corresponding to mouse gut metagenome with ENA study accession number: PRJEB37062 and ENA sample accession number: ERS12561829 for biotransformation under anaerobic condition. The drug concentrations were measured over 9 timepoints collected between 0 and 24 hours of incubation by liquid-chromatography-coupled mass spectrometry (LC–MS); settings: 2 µM
[2] = human gut metagenome, 24 h, 2 µM
[3] = as §1, with “Z-021” for “Z-030”, “to” for “to mouse gut”, “ERS12561820” for “ERS12561829”; settings: 2 µM
[4] = as §1, with “Z-027” for “Z-030”, “to” for “to mouse gut”, “ERS12561826” for “ERS12561829”; settings: 2 µM
[5] = as §1, with “WLS-086” for “Z-030”, “human” for “mouse”, “ERS12561752” for “ERS12561829”; settings: 2 µM
[6] = human gut metagenome, 24 h, 2 µM; remark: listed apart in the source
[7] = human gut metagenome, 24 h, 2 µM; remark: listed apart in the source
[8] = human gut metagenome, 24 h, 2 µM; remark: listed apart in the source
[9] = human gut metagenome, 24 h, 2 µM; remark: listed apart in the source
[10] = as §1, with “Z-025” for “Z-030”, “rabbit” for “mouse”, “ERS12561824” for “ERS12561829”; settings: 2 µM
[11] = as §1, with “WLS-027” for “Z-030”, “human” for “mouse”, “ERS12561744” for “ERS12561829”; settings: 2 µM
[12] = human gut metagenome, 24 h, 2 µM; remark: listed apart in the source
[13] = as §1, with “WLS-310” for “Z-030”, “human” for “mouse”, “ERS12561785” for “ERS12561829”; settings: 2 µM
[14] = as §1, with “Z-026” for “Z-030”, “to” for “to mouse gut”, “ERS12561825” for “ERS12561829”; settings: 2 µM
[15] = as §1, with “WLS-220” for “Z-030”, “human” for “mouse”, “ERS12561769” for “ERS12561829”; settings: 2 µM
[16] = as §1, with “Z-014” for “Z-030”, “rat” for “mouse”, “ERS12561814” for “ERS12561829”; settings: 2 µM
[17] = human gut metagenome, 24 h, 2 µM; remark: listed apart in the source
[18] = human gut metagenome, 24 h, 2 µM; remark: listed apart in the source
[19] = as §1, with “WLS-007” for “Z-030”, “human” for “mouse”, “ERS12561742” for “ERS12561829”; settings: 2 µM
[20] = as §1, with “WLS-006” for “Z-030”, “human” for “mouse”, “ERS12561741” for “ERS12561829”; settings: 2 µM
Note: call rule not given here.

SMILES | Bacterial Biotransformation [1] | Bacterial Biotransformation [2] | Bacterial Biotransformation [3] | Bacterial Biotransformation [4] | Bacterial Biotransformation [5] | Bacterial Biotransformation [6] | Bacterial Biotransformation [7] | Bacterial Biotransformation [8] | Bacterial Biotransformation [9] | Bacterial Biotransformation [10] | Bacterial Biotransformation [11] | Bacterial Biotransformation [12] | Bacterial Biotransformation [13] | Bacterial Biotransformation [14] | Bacterial Biotransformation [15] | Bacterial Biotransformation [16] | Bacterial Biotransformation [17] | Bacterial Biotransformation [18] | Bacterial Biotransformation [19] | Bacterial Biotransformation [20]
C#C[C@]1(OC(C)=O)CC[C@H]2[C@@H]3CCC4=CC(=O)CC[C@@H]4[C@H]3CC[C@@]21C [NORETHINDRONE ACETATE] | Compound NOT metabolized | Compound metabolized | Compound metabolized | Compound metabolized | Compound NOT metabolized | Compound NOT metabolized | Compound metabolized | Compound metabolized | Compound metabolized | Compound metabolized | Compound metabolized | Compound NOT metabolized |  |  |  |  |  |  |  | 
COc1cc(NC(C)CCCN)c2ncccc2c1.O=P(O)(O)O.O=P(O)(O)O (stereo not drawn) [PRIMAQUINE PHOSPHATE] | Compound NOT metabolized | Compound metabolized | Compound NOT metabolized | Compound NOT metabolized |  | Compound NOT metabolized | Compound NOT metabolized | Compound NOT metabolized | Compound NOT metabolized | Compound metabolized | Compound NOT metabolized | Compound NOT metabolized | Compound NOT metabolized | Compound NOT metabolized | Compound metabolized | Compound NOT metabolized | Compound NOT metabolized | Compound metabolized |  | 
CC(=O)OCC(=O)NCCCOc1cccc(CN2CCCCC2)c1 [ROXATIDINE ACETATE] | Compound NOT metabolized | Compound metabolized | Compound metabolized | Compound metabolized | Compound metabolized | Compound metabolized | Compound metabolized | Compound metabolized | Compound metabolized | Compound metabolized |  | Compound metabolized | Compound metabolized | Compound metabolized | Compound metabolized | Compound metabolized | Compound metabolized | Compound metabolized | Compound metabolized | 
CCCCCNC(=N)N/N=C/c1c[nH]c2ccc(OC)cc12.O=C(O)/C=C\C(=O)O [TEGASEROD MALEATE] | Compound NOT metabolized | Compound NOT metabolized | Compound NOT metabolized | Compound NOT metabolized | Compound NOT metabolized | Compound NOT metabolized | Compound NOT metabolized | Compound NOT metabolized | Compound metabolized |  | Compound NOT metabolized |  | Compound NOT metabolized | Compound NOT metabolized | Compound NOT metabolized | Compound NOT metabolized | Compound NOT metabolized | Compound NOT metabolized | Compound NOT metabolized | Compound NOT metabolized
COc1cc(C(=O)NCc2ccc(OCCN(C)C)cc2)cc(OC)c1OC [TRIMETHOBENZAMIDE] | Compound NOT metabolized | Compound NOT metabolized | Compound NOT metabolized | Compound NOT metabolized | Compound NOT metabolized | Compound NOT metabolized | Compound NOT metabolized |  | Compound NOT metabolized | Compound NOT metabolized | Compound NOT metabolized | Compound NOT metabolized | Compound NOT metabolized | Compound NOT metabolized | Compound NOT metabolized | Compound NOT metabolized | Compound NOT metabolized |  | Compound NOT metabolized | Compound NOT metabolized
